The target of assay [1] is T1, GlyT2 Y430F mutant (Homo sapiens, UniProt Q9Y345, Y430F).
T1 sequence (Q9Y345 1-797 Y430F): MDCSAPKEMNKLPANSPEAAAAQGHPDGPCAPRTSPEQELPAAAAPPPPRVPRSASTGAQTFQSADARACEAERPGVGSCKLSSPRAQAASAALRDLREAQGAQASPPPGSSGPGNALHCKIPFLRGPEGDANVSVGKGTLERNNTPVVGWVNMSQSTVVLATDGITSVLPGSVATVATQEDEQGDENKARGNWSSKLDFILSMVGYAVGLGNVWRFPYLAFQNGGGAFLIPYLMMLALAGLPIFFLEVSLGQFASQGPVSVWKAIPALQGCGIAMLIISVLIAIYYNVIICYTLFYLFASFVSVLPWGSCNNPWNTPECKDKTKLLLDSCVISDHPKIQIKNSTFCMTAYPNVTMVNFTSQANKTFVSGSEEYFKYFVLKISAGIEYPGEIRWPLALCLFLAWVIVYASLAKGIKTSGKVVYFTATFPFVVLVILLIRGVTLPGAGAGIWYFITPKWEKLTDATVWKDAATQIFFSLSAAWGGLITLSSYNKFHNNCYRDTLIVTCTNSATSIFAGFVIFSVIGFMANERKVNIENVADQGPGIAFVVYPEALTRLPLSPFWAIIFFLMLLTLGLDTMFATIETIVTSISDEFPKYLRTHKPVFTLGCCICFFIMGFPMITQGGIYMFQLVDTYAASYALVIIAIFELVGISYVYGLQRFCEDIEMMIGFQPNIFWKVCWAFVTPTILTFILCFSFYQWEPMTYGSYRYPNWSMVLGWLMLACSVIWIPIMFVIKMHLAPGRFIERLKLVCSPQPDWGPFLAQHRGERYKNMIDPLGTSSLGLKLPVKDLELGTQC
Briefly: Inhibitor washout time course (reversibility). Set-up: expressed in transfected cells; host or cells: Xenopus laevis oocytes injected with mutant RNA (pOTV vector). It counts as cell-based. The protocol:
(§1) Reversibility of GlyT2 inhibitors was determined by applying an EC50 concentration of glycine followed by co-application of the inhibitor at an IC50 concentration once a stable current had been achieved. Inhibitors were applied for 4 min as this was sufficient time to produce substantial inhibition for each compound and allowed for their direct comparison. At the conclusion of 4 min (time 0), ND96 buffer was perfused through the recording chamber to wash the oocyte. […] Transport currents were normalized to glycine currents in the absence of inhibitor and converted to % recovery values via Y=It−It=0/Imax−It=0, where Y is % recovery, I is current in nA, Imax is the maximal current produced by the glycine EC50, and t is time in minutes. Washout kinetics were then determined by fitting % recovery values to the first-order rate equation: Y=(Y0−Plateau).e^(−Kt)+Plateau, where Y is the % recovery, Y0 is the point, which crosses the Y-axis (constrained to 0) and increases to the plateau (constrained to between 0 and 100), K is the rate constant (1/t), and t is time in minutes. […] Because of the slowly […] nature of the inhibitors, washout time courses involving cyclodextrin treatment could not be performed on the same cell. […] As these experiments could not occur on the same cell, differences in half-life and maximal recovery were analysed via an unpaired two-tailed t test.

The target in assay [2] is T2, GlyT2 Y430L mutant (Homo sapiens, UniProt Q9Y345, Y430L).
T2 sequence (Q9Y345 1-797 Y430L): T1 sequence (Q9Y345 1-797 Y430F) with F430L
Briefly: Inhibitor washout time course (reversibility). The class given is cell-based. Details: expressed in transfected cells; host or cells: Xenopus laevis oocytes injected with mutant RNA (pOTV vector). The protocol: as §1

[3] abbreviates: washout after 4 min IC50 concentration.

Structures are written as SMILES. Numbering of substitutions follows the chain as printed.

Consider `CCCCCCCC/C=C\CCCCCCCC(=O)O[C@H](CC(=O)[O-])C[N+](C)(C)C` [Oleoyl-L-Carnitine, oleoyl-L-carnitine], for which the figures for the “Recovery at 30 Min” value in assay [1] (setting [3]) and in assay [2] (setting [3]) were 24.7% and 80.6%, respectively.
Regarding `CCCCCCCC/C=C\CCCCCCCC(=O)N[C@@H](CC(C)C)C(=O)O` [Oleoyl-L-Leucine, oleoyl-L-leucine], in assay [1], the “Reduction in recovery of current 30 min after application, vs WT” value was 24.5%. Moreover, the “Recovery at 30 Min” value in assay [1] (setting [3]) is reported as 26.6 ± 2.3 %; in assay [2] (setting [3]), 67.9 ± 2.3 %. For the same compound, the “Increase in recovery of current 30 min after application, vs WT” value in assay [2] was determined as 16.8%.
`CCCCCCCC/C=C\CCCCCCCC(=O)N[C@@H](CCCCN)C(=O)O` [Oleoyl-L-Lysine, oleoyl-L-lysine]: in assay [1], the “Increase in recovery after 30 min, vs WT” value is 13.4%. The “Recovery at 30 Min” value amounted to 68.5 ± 2.1 % in assay [1] (setting [3]) and 72.5 ± 2.1 % in assay [2] (setting [3]). Also, the “Increase in recovery of current 30 min after application, vs WT” value in assay [2] is recorded as 17.4%.
On to `CCCCCCCC/C=C\CCCCCCCC(=O)N[C@@H](Cc1c[nH]c2ccccc12)C(=O)O` [Oleoyl-L-Tryptophan, oleoyl-L-tryptophan], for which, in assay [1] (setting [3]), the “Half-life (transport current recovery)” value was “No Recovery” and the “Recovery at 30 Min” value is recorded as “No Recovery”. In assay [2] (setting [3]), the “Half-life (transport current recovery)” value is “No Recovery” and the “Recovery at 30 Min” value was “No Recovery”.

For the origin of these results see PMC9873984, “Membrane cholesterol regulates inhibition and substrate transport by the glycine transporter, GlyT2” (Life Science Alliance, 2023).
